Literature values in patent publication US7977373B2, “Prodrugs of ion channel modulating compounds and uses thereof” (Cardiome Pharma Corp., priority 2004, dated 2011).

## CCCCCCCN(CC)CCCC(O)c1ccc(NS(C)(=O)=O)cc1 (centres unmarked) [ibutilide]
  patients requiring cardioversion for refractory ventricular arrhythmias: ~1.7%
estimated, patients
  risk of ventricular proarrhythmia: ~4.4%
